Reference: patent US20030064380A1, “Anergy-regulated molecules” (The Center For Blood Research, Inc., priority 2001, published 2003)

Tests used:
Type in all cases: cell-based, murine
D5 cells = experiment: transcription of inducible genes in ionomycin-treated D5 cells on second stimulation (RNase protection); settings: second stimulation with anti-CD3/anti-CD28 or antigen/APC
Protocol: (§1) Total cellular RNA was purified from resting cells or cells stimulated with APC and antigen or anti-CD3 plus anti-CD28 for 4 h, using Ultraspec reagent (Biotecx) and analyzed using the RiboQuant multiprobe RNase protection kit and specific multi-set probes (Pharmingen) according to the manufacturer's instructions. Jurkat cells were transfected by electroporation in serum-free medium with pulses of 250 V and 960 μF with […] of pEGFPN1 (Clontech) or pNLS-NFAT1 (ST2+5+8) (Okamura et al., (2000) Mol. Cell. 6: 539-550). RNA from transiently transfected Jurkat cells was obtained after selecting transfected cells for expression of a cotransfected murine CD4 plasmid using magnetic beads (Dynal).
The murine antigen-specific Th1 clone D5 was used to set up the model of clonal anergy developed by Schwartz and coworkers (Schwartz, (1996) J. Exp. Med. 184: 1-8).

D5 or primary T cells = experiment: apoptosis assays of ionomycin-stimulated T cells; settings: several independent assays
Protocol: Apoptosis was detected by the Tunel method using the In situ Cell Death Detection kit (Boheringer) following manufacture's instructions. Stained cells were analyzed on a FACSCAN (Beckton-Dickinson).
(§2) Of particular interest was the fact that several of the ionomycin-induced genes encoded proteins involved (or potentially involved) in protein degradation. Candidate genes in this category included caspase-3, SOCS-2 and Traf5 (FIG. 6B). Caspase-3 is an enzyme for which commercial reagents are readily available. Tests were conducted to determine whether caspase-3 was activated and functional in ionomycin-pretreated T cells. […] Further work will be necessary to establish whether proteolysis occurs in specific intracellular compartments relevant to TCR signal transduction or whether other signaling proteins are substrates for proteolysis in anergic cells.

caspase-3 = experiment: RNase protection assay of caspase-3 mRNA; settings: D5 T cells
Protocol: as §1, §2

C[C@H](CCC(=O)O)C[C@H](C)C[C@H](C)C(=O)/C=C(\O)[C@H](C)C[C@H](C)C/C=C/[C@@H](C)[C@@H](O)[C@@H](C)[C@@H](O)C[C@@H]1CC[C@@](C)([C@H]2CC[C@@](C)([C@@H](C)O)O2)O1 [Ionomycin, ionomycin]
transcription of inducible genes including IL-2, IFN-γ, TNF-α, GM-CSF and MIP-1α (D5 cells): markedly decreased | apoptosis (D5 or primary T cells): no detectable apoptosis | caspase-3 mRNA level (caspase-3): upregulated
